Reference: paper PMC11476629, “Exploring a Potential Optimization Route for Peptide Ligands of the Sam Domain from the Lipid Phosphatase Ship2” (International Journal of Molecular Sciences, 2024)
Where “and” joins values, the source holds several entries; their conditions need not be identical. Equal values may be shown once. Values belong to the molecule of their own block, whether it stands above or below them. Residues, ends and D or L forms follow the SMILES beside them. No end group written: not given here. *: point of attachment. FITC = O=C1OC2(c3ccc(O)cc3Oc3cc(O)ccc32)c2ccc(NC(=S)*)cc21; Ahx = NCCCCCC(=O)O; βAla = NCCC(=O)O

What was measured:
Ship2-Sam [1] = biological target: T1, Ship2-Sam (Homo sapiens, UniProt O15357); assay: NMR chemical shift perturbation studies with Ship2-Sam; type: binding; conditions: 1D 1H: Ship2-Sam 27 µM, peptide 273 µM; 1H-15N HSQC: Ship2-Sam 20 µM, peptide 200 µM; PBS, 298 K
T1 construct: The Sam (Sterile alpha motif) domain of the lipid phosphatase Ship2 (Ship2-Sam); made in house; host or cells: E. coli
T1 sequence (O15357 1196-1258 limits assumed): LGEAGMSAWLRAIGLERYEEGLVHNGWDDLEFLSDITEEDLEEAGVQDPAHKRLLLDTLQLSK
Description: The interaction between diverse PSscan peptides and Ship2-Sam was assessed by NMR chemical shift perturbation (CSP) studies using both 1D [^1H] and 2D [^1H-^15N] HSQC experiments (Figure 4 and Figures S7–S10).
[^1H-^15N] HSQC spectra for chemical shift perturbation studies were acquired with ^15N labeled Ship2-Sam (20 μM concentration) in the absence and presence of PSscan255, PSscan258, and PSscan266 peptides (200 μM concentrations). For these experiments, concentrated peptide stocks in PBS were diluted in protein samples. The pH was checked upon each peptide’s addition and eventually carefully adjusted with NaOH or HCl solutions to avoid pH variations in the NMR samples. Chemical shift perturbation studies with 1D [^1H] NMR experiments were similarly recorded for Ship2-Sam alone (27 μM concentration) and in the presence of PSscan peptides (273 μM concentration). Spectra under identical experimental conditions were recorded for Ship2-Sam alone and following the addition of the control peptides.

[2] = Peptide self-aggregation by 1D 1H NMR at diverse concentrations; type: physicochemical; conditions: 1D 1H NMR in PBS/D2O (90/10 v/v), peptide 50-300 µM, constant pH
Description: In addition, to better understand results from NMR interaction assays, we evaluated whether peptide self-aggregation phenomena could occur in the peptide concentration range employed. Thus, NMR spectra were recorded for each PSscan peptide at diverse concentrations in the range of 50–300 µM (Figure 5, Figures S13 and S14). As all three peptides are rich in aromatic and positively charged residues, self-aggregation can occur not only through π–π stacking interactions but also through cation–π contacts between diverse peptide units. To better identify the signals of aromatic protons within 1D [^1H] NMR spectra in PBS, hydrogen/deuterium exchange experiments were conducted (Figure 5 and Figure S14). Indeed, an excess of D2O in solution induces the disappearance of HN and other exchangeable exposed protons, while aromatic and side-chain protons remain clearly visible (Figure 5 and Figure S14). When recording NMR spectra of peptides at different concentrations, particular care was also taken to keep the pH at a constant value to avoid undesired chemical shift changes.

PC-3 cells = conditions: 50 µM, 4 h, fluorescence (deconvolution) microscopy
Description: The FITC-TAT-PSscan255 peptide (50 μM) was added for 4 h to PC-3 cells (5 × 10^4/mL) that were positioned on coverslips inside a Petri dish. Following incubation, cells were first washed three times with PBS and then fixed in 4% paraformaldehyde in PBS for 15 min. Next, cell permeabilization was achieved via treatment with 0.3% Triton-X 100 in PBS for 30 min. After blocking for 15 min with 2% bovine serum albumin, the coverslips were marked with phalloidin-iFluor 594 (Abcam, Milan, Italy), which was diluted 1:1000 for 1 h. After three extra rinses with PBS, the nuclei were stained with Hoechst 33342 (Thermo Fisher Scientific, Milan, Italy), diluted 1:2000, and incubated for 15 min in the dark. Lastly, the coverslips were mounted onto microscope slides with Mowiol (Sigma from Merck Group, Milan, Italy) and permitted to cure for at least 48 h before undergoing microscopy imaging. Images were taken with a Nikon Eclipse Ti2-E inverted research microscope (Nikon Instruments, Melville, NY, USA) using standard phase contrast, epifluorescence microscopy, and deconvolution. Image acquisition was accomplished with an Andor Zyla 4.2+ sCMOS high-sensitivity monochrome camera and managed by Nikon NIS-Elements Advanced Research (AR) image acquisition and analysis software.

Ship2-Sam [3] = biological target: T1, Ship2-Sam; assay: BLI (BioLayer Interferometry) interaction assay; conditions: biotinylated-pegylated PSscan255 immobilized on streptavidin biosensor; Ship2-Sam 20-500 µM; 1:1 Langmuir model, global analysis; read-out: KD for binding to Ship2-Sam
Description: The peptide was purchased in the biotinylated–pegylated form (Table S4) and immobilized on a streptavidin-coated biosensor. Kinetic experiments, carried out at diverse Ship2-Sam concentrations in the range of 20–500 µM (Figure S19), provided dose–response signals, allowing the estimation of a KD value equal to (70 ± 40) µM.
For BLI interaction assays, the Sartorius Octet® N1 System and streptavidin (SA)-coated biosensor tips (Sartorius Italy S.r.l., Grassina-Bagno a Ripoli (FI), Italy) were employed. SA biosensor tips were first hydrated in 1X PBS buffer; then, to achieve ligand immobilization, the tips were dipped, for 300 sec with 1000 rpm agitation, into 4 µL of biotinylated–pegylated PSscan255 solution (50 µg/mL). Following peptide loading, each tip was placed in contact, for 300 s with a 1000 rpm agitation speed, with 4 µL of Ship2-Sam protein at several concentrations (20, 50, 100, 300, and 500 µM). All mathematical manipulations were handled by the Octet Analysis Studio 12.2 software from Sartorius. A 1:1 Langmuir binding model was used for data fitting, and the KDs were obtained through the global analysis mode.

[4] = Serum stability in FBS (RP-HPLC); type: in vitro ADME; conditions: 25% fetal bovine serum, 25% FBS, 37 °C, peptide 80 µM, RP-HPLC UV peak area, average of two assays
Description: The PSscan255 peptide was mixed with 25% fetal bovine serum (FBS, from Merck group, Milan, Italy), previously incubated at 37 °C for 15 min, to obtain a peptide concentration equal to 80 µM in the end. These mixtures were kept at 37 °C and, at several time intervals (0, 1, 2, 3, 4, 5, 17, and 19 h), aliquots of the incubating solutions (50 µL) were quenched by using 15% trifluoroacetic acid (TFA) (50 µL) and then incubated at 2 °C for 15 min. Next, serum proteins were discarded by centrifugation (15 min at 3000 rpm), and samples were subjected to reverse-phase high-performance liquid chromatography (RP-HPLC). RP-HPLC runs were conducted with an HPLC LC-4000 series (Jasco) equipped with a UV detector by using a C18-Kinetek column (Phenomenex, Milan, Italy). Gradient elution was conducted at 25 °C; the gradient started with buffer A, consisting of water with 0.1% TFA. Then buffer B, consisting of acetonitrile with 0.1% TFA, was added from 5 to 70% in 20 min. The peak areas were integrated at diverse time lapses. Two assays were performed, and data points represent average values over the two experiments.

PSscan255 = biological target: T2, PSscan255 (synthetic construct, also: biotinylated and pegylated, positions not given here); assay: BLI
T2 chain: KREWYKFLANKRIAY

Molecule: CC[C@H](C)[C@H](NC(=O)[C@H](CCCNC(=N)N)NC(=O)[C@H](CCCCN)NC(=O)[C@H](CC(N)=O)NC(=O)[C@H](C)NC(=O)[C@H](CC(C)C)NC(=O)[C@H](Cc1ccccc1)NC(=O)[C@H](CCCCN)NC(=O)[C@H](Cc1ccc(O)cc1)NC(=O)[C@H](Cc1c[nH]c2ccccc12)NC(=O)[C@H](CCC(=O)O)NC(=O)[C@H](CCCNC(=N)N)NC(=O)[C@H](CCCCN)NC(=O)CNC(=O)CNC(=O)[C@H](CCC(N)=O)NC(=O)[C@@H]1CCCN1C(=O)[C@@H]1CCCN1C(=O)[C@H](CCCNC(=N)N)NC(=O)[C@H](CCCNC(=N)N)NC(=O)[C@H](CCCNC(=N)N)NC(=O)[C@H](CCC(N)=O)NC(=O)[C@H](CCCNC(=N)N)NC(=O)[C@H](CCCNC(=N)N)NC(=O)[C@H](CCCCN)NC(=O)[C@H](CCCCN)NC(=O)[C@H](CCCNC(=N)N)NC(=O)CNC(=O)CCNC(=O)CCCCCNC(=S)Nc1ccc2c(c1)C(=O)OC21c2ccc(O)cc2Oc2cc(O)ccc21)C(=O)N[C@@H](C)C(=O)N[C@@H](Cc1ccc(O)cc1)C(N)=O [FITC-TAT-PSscan255] ({FITC-Ahx-βAla}-GRKKRRQRRRPPQGGKREWYKFLANKRIAY-NH2)
- Cellular localization after uptake (PC-3 cells): positioned in the cytoplasm

Molecule: CSCC[C@H](NC(=O)[C@H](Cc1ccccc1)NC(=O)[C@H](CCCCN)NC(=O)[C@H](CC(=O)O)NC(=O)[C@H](CCC(=O)O)NC(=O)[C@H](CCCNC(=N)N)NC(=O)[C@H](CCCNC(=N)N)NC(=O)[C@@H](NC(=O)[C@@H]1CCCN1C(=O)CNC(C)=O)[C@@H](C)O)C(=O)N[C@@H](Cc1ccc(O)cc1)C(=O)N[C@@H](Cc1ccccc1)C(N)=O [CTRL, reference compound] (Ac-GPTRREDKFMYF-NH2)
- Interaction with Ship2-Sam by chemical shift perturbation (Ship2-Sam [1]): did not reveal high-affinity binding

Further lines, with some results ahead:

- Interaction with Ship2-Sam by chemical shift perturbation (Ship2-Sam [1]): weak interactions
Molecule: CC[C@H](C)[C@H](NC(=O)[C@H](CCCNC(=N)N)NC(=O)[C@H](CCCCN)NC(=O)[C@H](CC(N)=O)NC(=O)[C@H](C)NC(=O)[C@H](CCSC)NC(=O)[C@H](Cc1ccccc1)NC(=O)[C@H](CCCCN)NC(=O)[C@H](Cc1ccc(O)cc1)NC(=O)[C@H](Cc1c[nH]c2ccccc12)NC(=O)[C@H](CCC(=O)O)NC(=O)[C@H](CCCNC(=N)N)NC(=O)[C@H](CCSC)NC(C)=O)C(=O)N[C@@H](C)C(=O)N[C@@H](Cc1ccc(O)cc1)C(N)=O [PSscan266] (Ac-MREWYKFMANKRIAY-NH2)
- Self-aggregation [2]: could be affected by a certain amount of self-aggregation

- Interaction with Ship2-Sam by chemical shift perturbation (Ship2-Sam [1]): weakest
Molecule: CC[C@H](C)[C@H](NC(=O)[C@H](CCCNC(=N)N)NC(=O)[C@H](CCCCN)NC(=O)[C@H](CC(N)=O)NC(=O)[C@H](C)NC(=O)[C@H](CCSC)NC(=O)[C@H](Cc1ccccc1)NC(=O)[C@H](CCCCN)NC(=O)[C@H](Cc1ccc(O)cc1)NC(=O)[C@H](Cc1c[nH]c2ccccc12)NC(=O)[C@H](CC(=O)O)NC(=O)[C@H](CCCNC(=N)N)NC(=O)[C@H](CCCCN)NC(C)=O)C(=O)N[C@@H](C)C(=O)N[C@@H](Cc1ccc(O)cc1)C(N)=O [PSscan258] (Ac-KRDWYKFMANKRIAY-NH2)

- Kd (Ship2-Sam [3]): ~70 µM and 70 µM
- remaining at 5 h, 80 µM ([4]; 5 h, read-out: Peptide recovered after incubation with FBS): 80%
- remaining at 19 h, 80 µM ([4]; 19 h, read-out: Peptide not degraded after incubation with FBS): 50%
Molecule: CC[C@H](C)[C@H](NC(=O)[C@H](CCCNC(=N)N)NC(=O)[C@H](CCCCN)NC(=O)[C@H](CC(N)=O)NC(=O)[C@H](C)NC(=O)[C@H](CC(C)C)NC(=O)[C@H](Cc1ccccc1)NC(=O)[C@H](CCCCN)NC(=O)[C@H](Cc1ccc(O)cc1)NC(=O)[C@H](Cc1c[nH]c2ccccc12)NC(=O)[C@H](CCC(=O)O)NC(=O)[C@H](CCCNC(=N)N)NC(=O)[C@H](CCCCN)NC(C)=O)C(=O)N[C@@H](C)C(=O)N[C@@H](Cc1ccc(O)cc1)C(N)=O [PSscan255] (Ac-KREWYKFLANKRIAY-NH2)

- Kd (PSscan255): 70 µM
B1: Ship2-Sam Sam (protein)
chain: ASGLGEAGMSAWLRAIGLERYEEGLVHNGWDDLEFLSDITEEDLEEAGVQDPAHKRLLLDTLQLSK
